Several values for one entry are separate records, joined by “and”; a condition that tells them apart may be missing. Equal entries are not always repeated. Entries after “also recorded” stand apart in the source; their conditions may differ.
T1: hCEPT1p (Homo sapiens, UniProt Q9Y6K0)
T1 construct: All of the hCEPT1p detected in S. cerevisiae was full length; made in house; host or cells: S. cerevisiae HJ091 (cpt1::LEU2 ept1-), plasmid pAH9, microsomal membranes
T1 sequence (Q9Y6K0 1-416): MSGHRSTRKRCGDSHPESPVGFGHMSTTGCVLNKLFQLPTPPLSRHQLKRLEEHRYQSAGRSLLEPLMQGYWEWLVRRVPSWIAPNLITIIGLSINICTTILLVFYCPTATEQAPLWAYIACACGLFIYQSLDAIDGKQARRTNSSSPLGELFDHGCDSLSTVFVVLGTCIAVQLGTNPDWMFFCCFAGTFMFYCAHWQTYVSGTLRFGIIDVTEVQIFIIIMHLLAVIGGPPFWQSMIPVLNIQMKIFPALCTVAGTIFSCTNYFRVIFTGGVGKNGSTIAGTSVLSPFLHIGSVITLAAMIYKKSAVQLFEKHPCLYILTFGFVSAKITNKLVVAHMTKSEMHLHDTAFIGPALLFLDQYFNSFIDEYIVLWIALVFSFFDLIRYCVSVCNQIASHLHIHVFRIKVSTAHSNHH

T2: hCEPT2 (Homo sapiens, UniProt Q8WUD6)
T2 construct: A full length cDNA was isolated using the Genetrapper™ system technology; expressed in transfected cells; host or cells: HEK293s cells, plasmid pCMVsport-hCEPT2 (clone from the pCMV-Sport human brain cDNA library), microsomal membranes
T2 sequence (Q8WUD6 2-406): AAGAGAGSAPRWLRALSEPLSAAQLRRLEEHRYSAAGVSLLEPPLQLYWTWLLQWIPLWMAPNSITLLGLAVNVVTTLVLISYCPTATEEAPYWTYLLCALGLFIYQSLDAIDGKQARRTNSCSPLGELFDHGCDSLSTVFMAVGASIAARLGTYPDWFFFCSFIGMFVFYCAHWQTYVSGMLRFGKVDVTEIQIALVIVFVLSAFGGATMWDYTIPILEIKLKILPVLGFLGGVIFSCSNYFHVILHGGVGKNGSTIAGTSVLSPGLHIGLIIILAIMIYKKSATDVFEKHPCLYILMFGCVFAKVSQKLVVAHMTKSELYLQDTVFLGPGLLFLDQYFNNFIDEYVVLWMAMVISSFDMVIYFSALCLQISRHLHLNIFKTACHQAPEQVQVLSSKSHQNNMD


Key:
[1] = target: T1, hCEPT1p; test: Choline-/ethanolaminephosphotransferase enzyme assay, microsomal membranes of S. cerevisiae HJ091 expressing hCEPT1; assay type: biochemical; conditions: for Specific activity with CDP-choline (in words): CDP-choline as donor, synthesis of PAF, acyl-PAF, di10:0 PtdCho; for Enzyme activity, CDP-choline: phosphobase donor CDP-choline; for Enzyme activity, CDP-choline / Enzyme activity, CDP-ethanolamine: diradylglycerol as acceptor substrate, hCEPT1p in S. cerevisiae HJ091 microsomes; for Enzyme activity, CDP-ethanolamine: phosphobase donor CDP-ethanolamine
Method: Diradylglycerols or ceramides were dried under nitrogen gas and resuspended in 0.015% (w/v) Tween 20™ by sonication. […] Assays were incubated at 37° C. for 15 min and activity terminated by the addition of 3 ml CHCl3/ CH3OH (2/1, v/v) followed by 1.5 ml 0.9% (w/v) KCl. Tubes were vortexed and phase separation facilitated by centrifugation at 2000 g for 10 min. The aqueous phase was aspirated and the organic phase was washed twice with 1.5 ml 40% (v/v) CH3OH. An aliquot of the organic phase was dried in a scintillation vial and radioactivity was determined.

[2] = target: T2, hCEPT2; test: Choline-/ethanolaminephosphotransferase activity of microsomes from HEK293s cells overexpressing hCEPT2; assay type: biochemical
Description: A full length cDNA was isolated using the Genetrapper™ system technology (Life Technologies). A primer corresponding to the most 5′ RACE extneded sequence in hand, […] (SEQ ID NO: 11) was biotinylated using terminal deoxynucleotide transferase and hybridized in solution to a single stranded human brain cDNA library that had been generated by digestion of the library with Gene II protein and exonuclease III. Avidin bound to magnetic beads was used to selectively precipitate the biotinylated probe/hybridized cDNA complex, thus enriching the library for cDNAs complementary to the oligonucleotide used. The single stranded cDNAs were extended using Klenow and E. coli were transformed and screened for positive clones with the end labeled antisense oligo, […], found within the original EST 67440. Plasmid DNA from positive colonies was amplified and hCEPT2 specific inserts confirmed and sized by PCR.
Diradylglycerols or ceramides were dried under nitrogen gas and resuspended in 0.015% (w/v) Tween 20™ by sonication. Unless otherwise indicated, assay buffer contained 100 mM Tris-HCl (pH 8.0), 20 mM MgCl2, 1 mM EDTA, 1 mM diradylglycerol or ceramide (final Tween 20 concentration of 0.00375%, w/v), and 10 μg of microsomal protein. […] Assays were incubated at 37° C. for 15 min and activity terminated by the addition of 3 ml CHCl3/ CH3OH (2/1, v/v) followed by 1.5 ml 0.9% (w/v) KCl. Tubes were vortexed and phase separation facilitated by centrifugation at 2000 g for 10 min. The aqueous phase was aspirated and the organic phase was washed twice with 1.5 ml 40% (v/v) CH3OH. An aliquot of the organic phase was dried in a scintillation vial and radioactivity was determined. Samples were routinely analyzed by thin layer chromatography on silica gel plates in a solvent system of CHCl3/CH3OH/NH4OH/H2) (70/30/4/2, v/v) to confirm the synthesis of PtdCho, PtdEtn, and PAF and their analogues.

Row | Molecule | Enzyme activity, CDP-choline [1] [nmol/min/mg] | Enzyme activity, CDP-ethanolamine [1] [nmol/min/mg] | other results
1 | CCCCCCCCCCCCCCCCOCC(CO)OC(C)=O (stereo not drawn) [1-O-16:0/2:0] | 106.0 ± 5.6 | – | Specific activity with CDP-choline (in words) ([1]; listed as 1O-16:0/2:0): highest specific activities; Specific activity with CDP-choline (in words) ([1]; listed as 16:0/2:0): High activities
2 | NCCOP(=O)(O)OP(=O)(O)OC[C@H]1O[C@@H](n2ccc(N)nc2=O)[C@H](O)[C@@H]1O [CDP-ethanolamine] | – | – | Vmax(app) ([1]; di18:1 as the diradylglycerol substrate): 12.8 nmol/min/mg; Km ([1]; di18:1 as the diradylglycerol substrate, read-out: Km(app)): 109 µM
3 | O[C@@H](CS)[C@@H](O)CS [DTT] | – | – | Effect of DTT on cholinephosphotransferase activity ([1]; DTT 0-5 mM in assay mix, regardless of the diradylglycerol substrate, data not shown): insensitive; also recorded: did not affect
4 | CCCCCCCC(=O)OC[C@H](CO)OC(=O)CCCCCCC [di8:0] | 54.9 ± 6.4 | 3.1 ± 0.4 | –
5 | CCCCCCCCCC(=O)OCC(CO)OC(=O)CCCCCCCCC (stereo not drawn) [di10:0] | 172.5 ± 9.8 | 3.7 ± 0.4 | Specific activity with CDP-choline (in words) [1]: highest specific activities
6 | CCCCCCCCCCCC(=O)OCC(CO)OC(=O)CCCCCCCCCCC (stereo not drawn) [di12:0] | 27.2 ± 6.9 | 2.7 ± 0.3 | –
7 | CCCCCCCCCCCCCC(=O)OC[C@H](CO)OC(=O)CCCCCCCCCCCCC [di14:0] | 6.7 ± 0.2 | 3.7 ± 0.1 | –
8 | CCCCCCCCCCCCCCCC(=O)OC[C@H](CO)OC(=O)CCCCCCCCCCCCCCC [di16:0] | 4.3 ± 0.2 | 3.5 ± 0.2 | –
9 | hCEPT2: human choline/ethanolaminephosphotransferase 2, SEQ ID NO:4 (protein) MAAGAGAGSAPRWLRALSEPLSAAQLRRLEEHRYSAAGVSLLEPPLQLYWTWLLQWIPLWMAPNSITLLGLAVNVVTTLVLISYCPTATEEAPYWTYLLCALGLFIYQSLDAIDGKQARRTNSCSPLGELFDHGCDSLSTVFMAVGASIAARLGTYPDWFFSCSFIGMFVFYCAHWQTYVSGMLRFGKVDVTEIQIALVIVFVLSAFGGATMWDYTIPILEIKLKILPVLGFLGGVIFSCSNYFHVILHGGVGKNGSTIAGTSVLSPGLHIGLIIILAIMIYKKSATDVFEKHPCLYILMFGCVFAKVSQKLVVAHMTKSELYLQDTVFLGPGLLFLDQYFNNFIDEYVVLWMAMVISSFDMVIYFSALCLQISRHLHLNIFKTACHQAPEQVQVLSSKSHQNNMD | – | – | Cholinephosphotransferase activity, mean ([2]; CDP-AA choline, mean of duplicates): 10.673 nmol/min/mg; Cholinephosphotransferase activity ([2]; CDP-AA choline, single determinations): 10.638 nmol/min/mg and 10.708 nmol/min/mg; Ethanolaminephosphotransferase activity, mean ([2]; CDP-AA ethanolamine, mean of duplicates): 2.427 nmol/min/mg; Ethanolaminephosphotransferase activity ([2]; CDP-AA ethanolamine, single determinations): 2.169 nmol/min/mg and 2.685 nmol/min/mg

— patent US6451568B1, “Cloning of human choline ethanolaminephospho transferases synthesis of phosphatidyl choline phosphatidyle thanolamine and platelet activating factor” (Dalhousie University, priority 1998, dated 2002)
